Measurements published in the supplement of paper PMC9663587.

Legend:
[1] = compound: COc1ccc2c(c1)[C@]1(C[C@H]1c1ccc3c(/C=C/c4ccc(CN5C[C@@H](C)O[C@@H](C)C5)cc4)n[nH]c3c1)C(=O)N2
[2] = compound: CO[C@@H](C)Cn1c(=O)n(C)c2cnc3ccc(-c4cncc(C(C)(C)O)c4)cc3c21
Alpelisib/BYL719 = compound: Cc1nc(NC(=O)N2CCC[C@H]2C(N)=O)sc1-c1ccnc(C(C)(C)C(F)(F)F)c1 [Alpelisib/BYL719]
[3] = compound: CC(=O)Nc1cccc(-n2c(=O)n(C3CC3)c(=O)c3c(Nc4ccc(I)cc4F)n(C)c(=O)c(C)c32)c1
[4] = compound: CCCCOc1c(C(=O)c2c(F)cc(C)cc2F)c[nH]c2nncc1-2
Rucaparib = compound: CNCc1ccc(-c2[nH]c3cc(F)cc4c3c2CCNC4=O)cc1 [Rucaparib]
Cediranib/AZD2171 = compound: COc1cc2c(Oc3ccc4[nH]c(C)cc4c3F)ncnc2cc1OCCCN1CCCC1 [Cediranib/AZD2171]
Saracatinib/AZD0530 = compound: CN1CCN(CCOc2cc(OC3CCOCC3)c3c(Nc4c(Cl)ccc5c4OCO5)ncnc3c2)CC1 [Saracatinib/AZD0530]
AZD1775 = compound: C=CCn1c(=O)c2cnc(Nc3ccc(N4CCN(C)CC4)cc3)nc2n1-c1cccc(C(C)(C)O)n1 [AZD1775]
THZ1 [5] = compound: T1, CN(C)C/C=C/C(=O)Nc1ccc(C(=O)Nc2cccc(Nc3ncc(Cl)c(-c4c[nH]c5ccccc45)n3)c2)cc1 [THZ1]
THZ531 [6] = compound: T2, CN(C)C/C=C/C(=O)Nc1ccc(C(=O)N2CCC[C@@H](Nc3ncc(Cl)c(-c4c[nH]c5ccccc45)n3)C2)cc1 [THZ531]
BVD523 = compound: CC(C)Nc1cc(-c2c[nH]c(C(=O)N[C@H](CO)c3cccc(Cl)c3)c2)c(Cl)cn1 [BVD523]
[7] = compound: CC(=O)c1c(C)c2cnc(Nc3ccc(N4CCNCC4)cn3)nc2n(C2CCCC2)c1=O; assay: increase in dead-cell fraction, 72 h; higher = more death;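 further: breast cancer cell lines in 384-well plates, stained with Hoechst plus LIVE/DEAD far red dye and imaged, cells above an LDR intensity threshold counted dead, Hoechst-negative corpses included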
Neratinib/HKI272 = compound: CCOc1cc2ncc(C#N)c(Nc3ccc(OCc4ccccn4)c(Cl)c3)c2cc1NC(=O)/C=C/CN(C)C [Neratinib/HKI272]; assay: as above
YKL-5-124 = compound: C=CC(=O)Nc1ccc(C(=O)Nc2[nH]nc3c2CN(C(=O)N[C@H](CN(C)C)c2ccccc2)C3(C)C)cc1 [YKL-5-124]; assay: as above
BSJ-03-123 = compound: CC(=O)c1c(C)c2cnc(Nc3ccc(N4CCN(CCOCCOCCOCCNC(=O)COc5cccc6c5C(=O)N(C5CCC(=O)NC5=O)C6=O)CC4)cn3)nc2n(C2CCCC2)c1=O [BSJ-03-123]; assay: as above
LEE011/Ribociclib = compound: CN(C)C(=O)c1cc2cnc(Nc3ccc(N4CCNCC4)cn3)nc2n1C1CCCC1 [LEE011/Ribociclib]; assay: as above
[8] = compound: CCc1cnn2c(NCc3ccc[n+]([O-])c3)cc(N3CCCC[C@H]3CCO)nc12; assay: as above
THZ1 [9] = compound: T1, THZ1; assay: as above
THZ531 [10] = compound: T2, THZ531; assay: as above
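Wherever GR50, 72 h is given: breast cancer and non-malignant breast epithelial cell lines, Deep Dye Drop or Dye Drop imaging, nine half-log doses, GR normalized to time-zero plates and DMSO-only controls.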

Cell Line: HS578T
- GR50, 72 h [1]: 0.00238 µM
- GR50, 72 h [2]: < 0.001 µM
- GR50, 72 h (Alpelisib/BYL719): > 10 µM
- GR50, 72 h [3]: 0.00636 µM
- GR50, 72 h [4]: 0.0165 µM
- GR50, 72 h (Rucaparib): > 10 µM
- GR50, 72 h (Cediranib/AZD2171): 0.551 µM
- GR50, 72 h (Saracatinib/AZD0530): 4.04 µM
- GR50, 72 h (AZD1775): 0.0155 µM
- GR50, 72 h (THZ1 [5]): 0.0183 µM
- GR50, 72 h (THZ531 [6]): 0.0496 µM
- GR50, 72 h (BVD523): 1.14 µM
- increase in dead-cell fraction ([7]; 0.0003162 µM): -0.0068
- increase in dead-cell fraction ([7]; 0.001 µM): 0.0083
- increase in dead-cell fraction ([7]; 0.003162 µM): 0.0012
- increase in dead-cell fraction ([7]; 0.01 µM): 0.0138
- increase in dead-cell fraction ([7]; 0.03162 µM): 0.0151
- increase in dead-cell fraction ([7]; 0.1 µM): 0.0427
- increase in dead-cell fraction ([7]; 0.3162 µM): 0.052
- increase in dead-cell fraction ([7]; 1 µM): 0.0736
- increase in dead-cell fraction ([7]; 3.162 µM): 0.116
- increase in dead-cell fraction (Neratinib/HKI272; 0.0003162 µM): 0.0023
- increase in dead-cell fraction (Neratinib/HKI272; 0.001 µM): 0.0036
- increase in dead-cell fraction (Neratinib/HKI272; 0.003162 µM): 0.0026
- increase in dead-cell fraction (Neratinib/HKI272; 0.01 µM): 0.0046
- increase in dead-cell fraction (Neratinib/HKI272; 0.03162 µM): 0.0039
- increase in dead-cell fraction (Neratinib/HKI272; 0.1 µM): 0.0039
- increase in dead-cell fraction (Neratinib/HKI272; 0.3162 µM): 0.0303
- increase in dead-cell fraction (Neratinib/HKI272; 1 µM): 0.061
- increase in dead-cell fraction (Neratinib/HKI272; 3.162 µM): 0.5
- increase in dead-cell fraction (YKL-5-124; 0.001 µM): 0.0377
- increase in dead-cell fraction (YKL-5-124; 0.003162 µM): 0.0487
- increase in dead-cell fraction (YKL-5-124; 0.01 µM): 0.0429
- increase in dead-cell fraction (YKL-5-124; 0.03162 µM): 0.127
- increase in dead-cell fraction (YKL-5-124; 0.1 µM): 0.139
- increase in dead-cell fraction (YKL-5-124; 0.3162 µM): 0.155
- increase in dead-cell fraction (YKL-5-124; 1 µM): 0.13
- increase in dead-cell fraction (YKL-5-124; 3.162 µM): 0.125
- increase in dead-cell fraction (YKL-5-124; 10 µM): 0.492
- increase in dead-cell fraction (BSJ-03-123; 0.001 µM): 0.0192
- increase in dead-cell fraction (BSJ-03-123; 0.003162 µM): 0.0459
- increase in dead-cell fraction (BSJ-03-123; 0.01 µM): 0.0053
- increase in dead-cell fraction (BSJ-03-123; 0.03162 µM): 0.0194
- increase in dead-cell fraction (BSJ-03-123; 0.1 µM): 0.0184
- increase in dead-cell fraction (BSJ-03-123; 0.3162 µM): 0.0238
- increase in dead-cell fraction (BSJ-03-123; 1 µM): 0.034
- increase in dead-cell fraction (BSJ-03-123; 3.162 µM): 0.0445
- increase in dead-cell fraction (BSJ-03-123; 10 µM): 0.267
- increase in dead-cell fraction (LEE011/Ribociclib; 0.001 µM): 0.0899
- increase in dead-cell fraction (LEE011/Ribociclib; 0.003162 µM): 0.0789
- increase in dead-cell fraction (LEE011/Ribociclib; 0.01 µM): 0.105
- increase in dead-cell fraction (LEE011/Ribociclib; 0.03162 µM): 0.0986
- increase in dead-cell fraction (LEE011/Ribociclib; 0.1 µM): 0.196
- increase in dead-cell fraction (LEE011/Ribociclib; 0.3162 µM): 0.2
- increase in dead-cell fraction (LEE011/Ribociclib; 1 µM): 0.245
- increase in dead-cell fraction (LEE011/Ribociclib; 3.162 µM): 0.248
- increase in dead-cell fraction (LEE011/Ribociclib; 10 µM): 0.243
- increase in dead-cell fraction ([8]; 0.0001 µM): 0.0032
- increase in dead-cell fraction ([8]; 0.0003162 µM): -0.0013
- increase in dead-cell fraction ([8]; 0.001 µM): 0.0026
- increase in dead-cell fraction ([8]; 0.003162 µM): 0.0085
- increase in dead-cell fraction ([8]; 0.01 µM): 0.187
- increase in dead-cell fraction ([8]; 0.03162 µM): 0.415
- increase in dead-cell fraction ([8]; 0.1 µM): 0.441
- increase in dead-cell fraction ([8]; 0.3162 µM): 0.423
- increase in dead-cell fraction ([8]; 1 µM): 0.443
- increase in dead-cell fraction (THZ1 [9]; 0.0001 µM): -0.0022
- increase in dead-cell fraction (THZ1 [9]; 0.0003162 µM): 0.0144
- increase in dead-cell fraction (THZ1 [9]; 0.001 µM): 0.0176
- increase in dead-cell fraction (THZ1 [9]; 0.003162 µM): -0.0036
- increase in dead-cell fraction (THZ1 [9]; 0.01 µM): 0
- increase in dead-cell fraction (THZ1 [9]; 0.03162 µM): 0.11
- increase in dead-cell fraction (THZ1 [9]; 0.1 µM): 0.174
- increase in dead-cell fraction (THZ1 [9]; 0.3162 µM): 0.216
- increase in dead-cell fraction (THZ1 [9]; 1 µM): 0.22
- increase in dead-cell fraction (THZ531 [10]; 0.0001 µM): 0.0179
- increase in dead-cell fraction (THZ531 [10]; 0.0003162 µM): 0.0236
- increase in dead-cell fraction (THZ531 [10]; 0.001 µM): -0.0057
- increase in dead-cell fraction (THZ531 [10]; 0.003162 µM): 0.0346
- increase in dead-cell fraction (THZ531 [10]; 0.01 µM): -0.004
- increase in dead-cell fraction (THZ531 [10]; 0.03162 µM): 0.0086
- increase in dead-cell fraction (THZ531 [10]; 0.1 µM): 0.182
- increase in dead-cell fraction (THZ531 [10]; 0.3162 µM): 0.2
- increase in dead-cell fraction (THZ531 [10]; 1 µM): 0.283
